Experimental data as given in patent US12144864B2, “Tubulysins and protein-tubulysin conjugates” (Regeneron Pharmaceuticals, Inc., priority 2018, dated 2024).
Where two headings read alike, the source gives them in different places.

Legend:
H69AR cells = experiment: Cytotoxicity in panel of MDR cell lines, H69AR (72 h and 144 h); format: cell-based, human; conditions: for IC50: Homo sapiens
Outline: (§1)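 Cells were seeded at 1000 per well and grown overnight, then exposed to 1:3 serially diluted payloads for 72 h and 144 h. CellTiter-Glo reagent was added for 10 min at room temperature, and luminescence was read. IC50 values came from a four-parameter logistic fit.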

MES-SA/MX2 cells = experiment: Cytotoxicity in panel of MDR cell lines, MES-SA/MX2 (72 h and 144 h); format: cell-based, human; conditions: for IC50: Homo sapiens
Outline: as §1

C4-2 cells = experiment: Cell-based killing assay of payloads (CellTiter-Glo), C4-2 cells; design: species or system human; conditions: 5-day incubation; for IC50: Homo sapiens, C4-2, 120 h, average ± SD where replicates; for C4-2 % Kill: at maximum concentration tested (100 − % viable cells)
Outline: (§2)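 Cells plated at 4000/well in line-specific complete medium, grown overnight, then exposed to 1:3 serial dilutions of payload (100 nM to […]) for 5 days. ATP-based CellTiter-Glo luminescence read; IC50 from four-parameter logistic 10-point fit, and % kill at top concentration as 100 − % viable.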

HCT15 cells = experiment: cells; format: cell-based, human; conditions: HCT15 cells; for HCT-15 + verapamil % Kill / HCT-15 % Kill: maximum % cell killing
Outline: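 HCT15 colorectal carcinoma cells, 1000 per well in RPMI/10% FBS, with or without 5 ug/mL verapamil, exposed to 1:3 serially diluted payloads for 5 days at 37 °C. Viability measured by CellTiter-Glo ATP luminescence; IC50 from four-parameter logistic fit of a 10-point curve, % kill at top concentration.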

HCT-15 cells = experiment: Cytotoxicity in panel of MDR cell lines, HCT-15 (72 h and 144 h); format: cell-based, human; conditions: for IC50: Homo sapiens
Outline: as §1

T47D cells = experiment: Cell-based killing assay of payloads (CellTiter-Glo), T47D cells; design: species or system human; conditions: 5-day incubation; for IC50: Homo sapiens, T47D, 120 h; for T47D % Kill: at maximum concentration tested
Outline: as §2

HL60/MX2 cells = experiment: Cytotoxicity in panel of MDR cell lines, HL60/MX2 (72 h and 144 h); format: cell-based, human; conditions: for IC50: Homo sapiens
Outline: as §1

HEK293 cells = experiment: Cell-based killing assay of payloads (CellTiter-Glo), HEK293 cells; design: species or system human; conditions: 5-day incubation; for IC50: Homo sapiens, HEK293, 120 h; for HEK293 % Kill: at maximum concentration tested
Outline: as §2

[1] = 72 h incubation, read-out: H69AR IC50 72 h
[2] = 144 h incubation, read-out: H69AR IC50 144 h
[3] = 72 h incubation, read-out: MES-SA/MX2 IC50 72 h
[4] = 144 h incubation, read-out: MES-SA/MX2 IC50 144 h
[5] = with 5 ug/mL Verapamil, read-out: HCT-15 + verapamil IC50
[6] = Homo sapiens, HCT-15, without Verapamil, read-out: HCT-15 IC50
[7] = 72 h incubation, read-out: HCT-15 IC50 72 h
[8] = 144 h incubation, read-out: HCT-15 IC50 144 h
[9] = 72 h incubation, read-out: HL60/MX2 IC50 72 h
[10] = 144 h incubation, read-out: HL60/MX2 IC50 144 h

Row | Compound | H69AR % Kill 72 h (H69AR cells; 72 h incubation) | H69AR % Kill 144 h (H69AR cells; 144 h incubation) | IC50 (H69AR cells; [1]) | IC50 (H69AR cells; [2]) | MES-SA/MX2 % Kill 72 h (MES-SA/MX2 cells; 72 h incubation) | MES-SA/MX2 % Kill 144 h (MES-SA/MX2 cells; 144 h incubation) | IC50 (MES-SA/MX2 cells; [3]) | IC50 (MES-SA/MX2 cells; [4]) | IC50 (C4-2 cells) | C4-2 % Kill (C4-2 cells) | HCT-15 % Kill (HCT15 cells; without Verapamil) | IC50 (HCT15 cells; [6]) | HCT-15 % Kill 72 h (HCT-15 cells; 72 h incubation) | HCT-15 % Kill 144 h (HCT-15 cells; 144 h incubation) | IC50 (HCT-15 cells; [7]) | IC50 (HCT-15 cells; [8]) | IC50 (T47D cells) | T47D % Kill (T47D cells) | HL60/MX2 % Kill 72 h (HL60/MX2 cells; 72 h incubation) | HL60/MX2 % Kill 144 h (HL60/MX2 cells; 144 h incubation) | also measured
1 | C#CCCCON(C(=O)[C@@H](NC(=O)[C@H]1CCCCN1C)[C@@H](C)CC)[C@H](C[C@@H](OC(C)=O)c1nc(C(=O)N[C@@H](Cc2ccccc2)CC(C)(C)C(=O)O)cs1)C(C)C [Vc, (4S)-4-({2-[(1R,3R)-1-(Acetyloxy)-4-methyl-3-[(2S,3S)-3-methyl-2-{[(2R)-1-methylpiperidin-2-yl]formamido}-N-(pent-4-yn-1-yloxy)pentanamido]pentyl]-1,3-thiazol-4-yl}formamido)-2,2-dimethyl-5-phenylpentanoic acid] | 96.6% | 99.4% | 154 pM | 287 pM | 99.2% | 100% | 89.5 pM | 299 pM | 36 pM | 91.7% | 97.6% | 475 pM | 97.6% | 99.7% | 33 pM | 67.5 pM | 67.7 pM | 64.9% | 98.4% | 99.9% | HCT-15 + verapamil % Kill (HCT15 cells; with 5 ug/mL Verapamil): 96.7%; IC50 (HCT15 cells; [5]): 146 pM; IC50 (HL60/MX2 cells; [9]): < 15 pM; IC50 (HL60/MX2 cells; [10]): < 15 pM; IC50 (HEK293 cells): 113 pM; HEK293 % Kill (HEK293 cells): 86.9%
2 | C#CCCCON(C(=O)[C@@H](NC(=O)[C@H]1CCCCN1C)[C@@H](C)CC)[C@H](C[C@@H](OC(C)=O)c1nc(C(=O)N[C@@H](Cc2ccc(N)cc2)C[C@H](C)C(=O)O)cs1)C(C)C [Vh, (2S,4R)-4-({2-[(1R,3R)-1-(Acetyloxy)-4-methyl-3-[(2S,3S)-3-methyl-2-{[(2R)-1-methylpiperidin-2-yl]formamido}-N-(pent-4-yn-1-yloxy)pentanamido]pentyl]-1,3-thiazol-4-yl}formamido)-5-(4-aminophenyl)-2-methylpentanoic acid] | 93.7% | 98.4% | 2590 pM | 4210 pM | 98.4% | 99.8% | 2980 pM | 8150 pM | 509 pM | 92% | 97.7% | 1470 pM | 97% | 99.6% | 871 pM | 1270 pM | 458 pM | 64.5% | 97.5% | 99.9% | HCT-15 + verapamil % Kill (HCT15 cells; with 5 ug/mL Verapamil): 98.1%; IC50 (HCT15 cells; [5]): 587 pM; IC50 (HL60/MX2 cells; [9]): 173 pM; IC50 (HL60/MX2 cells; [10]): < 15 pM; IC50 (HEK293 cells): 718 pM; HEK293 % Kill (HEK293 cells): 85.6%
3 | CC[C@H](C)[C@H](NC(=O)[C@H]1CCCCN1C)C(=O)N(CCCCc1cn(C)nn1)[C@H](C[C@@H](OC(C)=O)c1nc(C(=O)N[C@@H](Cc2ccc(N)cc2)CC(C)(C)C(=O)O)cs1)C(C)C [IVh, (S)-4-(2-((1R,3R)-1-acetoxy-4-methyl-3-((2S,3S)-3-methyl-N-(4-(1-methyl-1H-1,2,3-triazol-4-yl)butyl)-2-((R)-1-methylpiperidine-2-carboxamido)pentanamido)pentyl)thiazole-4-carboxamido)-5-(4-aminophenyl)-2,2-dimethylpentanoic acid] | 90.2% | 97.5% | 2930 pM | 3300 pM | 98.5% | 99.9% | 7490 pM | 8800 pM | 647 pM | 82 ± 2.8% | 94.6 ± 3.5% | 2500 pM | 95.4% | 99.7% | 1520 pM | 1530 pM | 1860 pM | 71.6% | 96.4% | 100% | IC50 (HL60/MX2 cells; [9]): 1110 pM; IC50 (HL60/MX2 cells; [10]): < 15 pM; IC50 (HEK293 cells): 1760 pM; HEK293 % Kill (HEK293 cells): 82.5%
